# Measurements reported in US9791456B2, “Method for measuring ATR inhibition mediated increases in DNA damage” (Vertex Pharmaceuticals Incorporated, priority 2012, dated 2017).
# Assays:
# Assay type in all cases: cell-based
# [1] = test system: pChk1^Ser345 in MCF7 cells; assay: UV induced phosphorylation of Chk1 in MCF7 cells over time, immunofluorescence; conditions: 20 J/m^2 UV
# Experimental: (§1) Coverslips were sterilised in methanol and placed in the bottom of a 6-well culture dish. 2×10^5 MCF7 cells were seeded into each well of a 6-well culture dish in culture medium (RPMI-1640 with 10% FBS and 1% penicillin and streptomycin) and allowed to adhere for 24 hours. […] Cells were exposed to 20 J/m^2 UV using a […]-2400' (Stratagene). Cells were incubated at 37° C. for 0.5, 1 and 3 hours at which points they were washed with 2 mls PBS and fixed. Cells were fixed using 4% (w/v) paraformaldehyde for 20 minutes at room temperature and permeablised using 0.5% (v/v) Triton-X-100 for 30 minutes at room temperature. […] These were detected using the appropriate secondary antibodies diluted in 1% (w/v) BSA in PBS for 1 hour at room temperature protected from light: anti-rabbit AlexaFluor 546 (Invitrogen, 1:1000) or anti-mouse AlexaFluor 546 (Invitrogen, 1:1000). Coverslips were washed three times for 10 minutes in PBS after incubation with each antibody. DNA was stained using […] with DAPI (Vector Laboratories). Images were captured using a Zeiss LSM 700 confocal microscope (Zeiss) with Zen 2009 software (Zeiss) using and ×40 lens and wavelengths of 405 nm and 561 nm. Mean nuclear fluorescence for at least 50 nuclei was measured using Image) software (National Institutes of Health, USA) and the data analysed using GraphPad Prism software version 6.0.
# [2] = test system: pChk1^Ser345 in MCF7 cells; assay: 4-nitroquinoline induced phosphorylation of Chk1 in MCF7 cells over time, immunofluorescence; conditions: Homo sapiens, 2.5 μM 4-nitroquinoline, 10 μM VE-821, for up to 3 hr
# Experimental: (§2) Coverslips were sterilised in methanol and placed in the bottom of a 6-well culture dish. 2×10^5 MCF7 cells were seeded into each well of a 6-well culture dish in culture medium (RPMI-1640 with 10% FBS and 1% penicillin and streptomycin) and allowed to adhere for 24 hours. […] Cells were incubated at 37° C. for 0.5, 1 and 3 hours at which points they were washed with 2 mls PBS and fixed. Cells were fixed using 4% (w/v) paraformaldehyde for 20 minutes at room temperature and permeablised using 0.5% (v/v) Triton-X-100 for 30 minutes at room temperature. […] These were detected using the appropriate secondary antibodies diluted in 1% (w/v) BSA in PBS for 1 hour at room temperature protected from light: anti-rabbit AlexaFluor 546 (Invitrogen, 1:1000) or anti-mouse AlexaFluor 546 (Invitrogen, 1:1000). Coverslips were washed three times for 10 minutes in PBS after incubation with each antibody. DNA was stained using […] with DAPI (Vector Laboratories). Images were captured using a Zeiss LSM 700 confocal microscope (Zeiss) with Zen 2009 software (Zeiss) using and ×40 lens and wavelengths of 405 nm and 561 nm. Mean nuclear fluorescence for at least 50 nuclei was measured using Image) software (National Institutes of Health, USA) and the data analysed using GraphPad Prism software version 6.0.
# γH2AX in MCF7 cells [3] = assay: 4-nitroquinoline induced phosphorylation of H2AX in MCF7 cells over time, immunofluorescence; conditions: Homo sapiens, 2.5 μM 4-nitroquinoline
# Experimental: as §2
# ATR [4] = biological target: T1, ATR (Homo sapiens, UniProt Q13535); assay: ATR inhibition in PBMCs after treatment of human whole blood with UV, immunofluorescence; conditions: 50 J/m^2 UV, 10 μM VE-821
# T1 construct: PBMCs were purified from fresh whole human blood; endogenous in cells; host or cells: human PBMCs / lymphocytes from fresh whole blood of healthy volunteers
# T1 sequence (Q13535 whole entry): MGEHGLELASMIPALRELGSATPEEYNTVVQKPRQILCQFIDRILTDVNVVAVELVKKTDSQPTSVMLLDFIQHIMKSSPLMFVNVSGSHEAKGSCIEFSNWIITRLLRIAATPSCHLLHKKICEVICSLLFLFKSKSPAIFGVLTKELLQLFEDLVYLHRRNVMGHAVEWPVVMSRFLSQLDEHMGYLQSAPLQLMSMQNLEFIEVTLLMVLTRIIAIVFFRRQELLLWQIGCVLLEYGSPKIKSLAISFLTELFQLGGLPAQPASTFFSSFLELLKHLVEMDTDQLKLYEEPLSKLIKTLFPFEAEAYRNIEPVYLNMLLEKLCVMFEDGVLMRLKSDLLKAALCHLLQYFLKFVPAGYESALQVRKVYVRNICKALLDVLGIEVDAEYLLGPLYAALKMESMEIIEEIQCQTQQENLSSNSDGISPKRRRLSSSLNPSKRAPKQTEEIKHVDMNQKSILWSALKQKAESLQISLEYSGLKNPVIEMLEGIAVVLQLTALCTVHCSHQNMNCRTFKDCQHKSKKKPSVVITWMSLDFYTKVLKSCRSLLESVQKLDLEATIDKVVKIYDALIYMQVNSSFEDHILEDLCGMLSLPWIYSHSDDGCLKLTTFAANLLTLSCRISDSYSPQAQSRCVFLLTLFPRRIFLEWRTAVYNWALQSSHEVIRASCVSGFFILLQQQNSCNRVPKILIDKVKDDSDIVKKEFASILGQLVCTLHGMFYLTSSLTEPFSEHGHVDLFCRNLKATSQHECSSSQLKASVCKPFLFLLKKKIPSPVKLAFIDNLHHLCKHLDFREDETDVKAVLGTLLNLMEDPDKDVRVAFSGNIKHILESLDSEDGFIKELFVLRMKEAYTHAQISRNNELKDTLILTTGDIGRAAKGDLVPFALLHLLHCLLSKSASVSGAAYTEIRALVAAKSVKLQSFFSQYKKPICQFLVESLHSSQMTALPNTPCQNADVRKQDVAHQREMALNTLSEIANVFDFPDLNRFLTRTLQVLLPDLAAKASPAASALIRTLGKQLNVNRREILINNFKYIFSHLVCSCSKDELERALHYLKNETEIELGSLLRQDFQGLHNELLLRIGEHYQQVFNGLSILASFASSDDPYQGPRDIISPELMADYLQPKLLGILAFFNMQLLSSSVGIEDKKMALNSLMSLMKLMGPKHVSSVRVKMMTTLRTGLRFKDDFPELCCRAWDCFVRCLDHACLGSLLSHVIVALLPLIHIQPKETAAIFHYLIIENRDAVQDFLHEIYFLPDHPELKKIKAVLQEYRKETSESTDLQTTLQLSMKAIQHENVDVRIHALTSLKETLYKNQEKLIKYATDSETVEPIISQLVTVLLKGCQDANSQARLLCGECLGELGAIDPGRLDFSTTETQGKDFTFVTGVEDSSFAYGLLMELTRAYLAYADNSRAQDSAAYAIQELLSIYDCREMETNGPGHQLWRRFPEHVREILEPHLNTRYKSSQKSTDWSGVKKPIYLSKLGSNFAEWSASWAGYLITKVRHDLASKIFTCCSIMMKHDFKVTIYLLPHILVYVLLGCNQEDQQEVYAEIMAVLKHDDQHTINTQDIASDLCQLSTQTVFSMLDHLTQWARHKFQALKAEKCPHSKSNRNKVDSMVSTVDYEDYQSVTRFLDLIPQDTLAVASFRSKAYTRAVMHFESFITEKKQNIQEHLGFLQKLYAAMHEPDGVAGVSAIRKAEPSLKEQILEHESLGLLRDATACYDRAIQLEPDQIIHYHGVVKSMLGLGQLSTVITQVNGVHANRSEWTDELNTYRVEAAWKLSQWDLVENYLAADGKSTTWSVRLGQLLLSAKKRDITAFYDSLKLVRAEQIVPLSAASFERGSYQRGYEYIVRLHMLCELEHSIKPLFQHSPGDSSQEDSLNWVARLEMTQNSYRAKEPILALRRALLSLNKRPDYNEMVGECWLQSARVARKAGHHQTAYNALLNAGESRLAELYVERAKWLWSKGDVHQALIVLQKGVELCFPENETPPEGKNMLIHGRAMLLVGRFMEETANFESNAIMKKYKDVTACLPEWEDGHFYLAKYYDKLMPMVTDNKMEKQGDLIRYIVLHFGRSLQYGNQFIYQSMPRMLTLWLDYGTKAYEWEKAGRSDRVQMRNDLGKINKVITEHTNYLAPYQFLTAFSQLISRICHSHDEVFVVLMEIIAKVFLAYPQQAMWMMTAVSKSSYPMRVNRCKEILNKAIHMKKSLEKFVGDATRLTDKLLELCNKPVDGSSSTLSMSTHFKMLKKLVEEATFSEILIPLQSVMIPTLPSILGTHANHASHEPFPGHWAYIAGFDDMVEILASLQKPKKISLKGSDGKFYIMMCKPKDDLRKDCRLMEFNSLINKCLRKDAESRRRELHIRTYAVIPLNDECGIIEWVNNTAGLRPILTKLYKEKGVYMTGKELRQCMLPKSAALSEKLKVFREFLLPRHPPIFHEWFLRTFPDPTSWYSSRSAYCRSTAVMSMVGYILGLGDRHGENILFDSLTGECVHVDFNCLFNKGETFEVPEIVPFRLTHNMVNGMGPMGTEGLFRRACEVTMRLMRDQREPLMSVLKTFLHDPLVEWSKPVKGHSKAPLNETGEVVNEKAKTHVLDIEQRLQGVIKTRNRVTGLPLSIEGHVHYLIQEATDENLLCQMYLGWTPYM
# T1 sequence (Q8WXE1 whole entry partner): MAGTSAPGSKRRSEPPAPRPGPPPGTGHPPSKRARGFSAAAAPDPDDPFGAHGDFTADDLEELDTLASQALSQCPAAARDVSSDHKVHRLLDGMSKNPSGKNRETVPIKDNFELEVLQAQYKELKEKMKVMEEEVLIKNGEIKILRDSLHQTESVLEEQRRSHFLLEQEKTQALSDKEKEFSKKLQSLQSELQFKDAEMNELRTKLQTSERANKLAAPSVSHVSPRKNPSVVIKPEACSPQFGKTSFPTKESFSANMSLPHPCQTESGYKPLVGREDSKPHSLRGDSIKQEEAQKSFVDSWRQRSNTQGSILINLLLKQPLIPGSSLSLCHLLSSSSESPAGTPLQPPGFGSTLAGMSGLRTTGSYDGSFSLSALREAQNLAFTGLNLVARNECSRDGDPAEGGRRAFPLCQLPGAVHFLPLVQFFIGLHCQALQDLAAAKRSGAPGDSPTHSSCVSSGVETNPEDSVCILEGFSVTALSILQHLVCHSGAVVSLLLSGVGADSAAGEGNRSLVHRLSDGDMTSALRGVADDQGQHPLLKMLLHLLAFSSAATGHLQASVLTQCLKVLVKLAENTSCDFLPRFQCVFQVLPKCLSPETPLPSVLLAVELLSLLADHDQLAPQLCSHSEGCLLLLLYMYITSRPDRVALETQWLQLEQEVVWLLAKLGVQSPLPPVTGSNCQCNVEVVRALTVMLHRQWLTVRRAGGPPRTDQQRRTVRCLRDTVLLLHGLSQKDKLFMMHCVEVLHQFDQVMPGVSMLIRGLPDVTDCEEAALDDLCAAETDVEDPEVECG
# Experimental: Blood from healthy volunteers was collected by venepuncture into EDTA-coated blood collection tubes. […] Following 1 hour incubation at 37° C. and 5% CO2, blood was exposed to 50 J/m^2 UV light. Following 1 hour further incubation the blood mixture was transferred into 15 ml falcon tubes containing 2 mls FICOLL-PAQUE PLUS™ and the PBMCs separated using centrifugation through a FICOLL-PAQUE PLUS™ separation gradient. PBMCs were collected and washed twice using 10 mls PBS and resuspended in 1 ml PBS. PBMCs were counted using a haemocytometer and 1×10^5 PBMCs were centrifuged onto microscope slides using a CYTOSPIN 2™ centrifuge (Shandon) for 5 minutes at 450 rpm. Cells were fixed using 4% (w/v) paraformaldehyde for 20 minutes and permeablised using 0.5% (v/v) Triton-X-100 for 30 minutes. […] These were detected using the appropriate secondary antibodies diluted in 1% (w/v) BSA in PBS for 1 hour at room temperature protected from the light: anti-rabbit AlexaFluor 488 (Invitrogen, 1:1000) and anti-mouse AlexaFluor 546 (Invitrogen, 1:1000). […] Mean nuclear fluorescence for at least 50 nuclei was measured using Image) software (National Institutes of Health, USA) and the data analysed using GraphPad Prism software version 6.0.
# γH2AX in MCF7 cells [5] = assay: UV induced phosphorylation of H2AX in MCF7 cells over time, immunofluorescence; conditions: 20 J/m^2 UV
# Experimental: as §1
# ATR [6] = biological target: T1, ATR; assay: ATR inhibition in purified PBMCs from human whole blood after DNA damaging agents, immunofluorescence; conditions: UV or 4-nitroquinoline, 10 μM VE-821
# Experimental: Blood from healthy volunteers was collected by venepuncture into EDTA-coated blood collection tubes. 2×10 ml aliquots of blood was diluted 1:1 in PBS and transferred into 50 ml falcon tubes containing 10 mls FICOLL-PAQUE PLUS™ (GE Healthcare). PBMCs were separated using centrifugation through a FICOLL-PAQUE PLUS™ separation gradient. PBMCs from each tube were collected separately and washed twice with 20 mls PBS before being pooled and resuspended in 20 mls culture medium (RPMI-1640 with 10% FBS). 2 mls of PBMC suspension per treatment were transferred into one well of a 6-well culture dish. […] PBMCs were collected using centrifugation, washed in 1 ml PBS then resuspended in 1 ml PBS before being counted using a haemocytometer. 1×10^5 PBMCs were centrifuged onto microscope slides using a CYTOSPIN 2™ centrifuge (Shandon) for 5 minutes at 450 rpm. […] These were detected using the appropriate secondary antibodies diluted in 1% (w/v) BSA in PBS for 1 hour at room temperature protected from the light: anti-rabbit AlexaFluor 488 (Invitrogen, 1:1000) and anti-mouse AlexaFluor 546 (Invitrogen, 1:1000). […] Mean nuclear fluorescence for at least 50 nuclei was measured using ImageJ software (National Institutes of Health, USA) and the data analysed using GraphPad Prism software version 6.0.
# ATR [7] = biological target: T1, ATR; assay: ATR inhibition in PBMCs after treatment of human whole blood with 4-nitroquinoline, immunofluorescence; conditions: 240 μM 4-nitroquinoline 1 and 2 hr, 1 or 10 μM compound
# Experimental: Blood from healthy volunteers was collected by venepuncture into EDTA-coated blood collection tubes. […] Following 1 or 2 hours incubation (as indicated) at 37° C. the blood mixture was transferred into 15 ml falcon tubes containing 2 mls FICOLL-PAQUE PLUS™ and the PBMCs separated using centrifugation through a FICOLL-PAQUE PLUS™ separation gradient. PBMCs were collected and washed twice using 10 mls PBS and resuspended in 1 ml PBS. PBMCs were counted using a haemocytometer and 1×10^5 PBMCs were centrifuged onto microscope slides using a CYTOSPIN 2™ centrifuge (Shandon) for 5 minutes at 450 rpm. Cells were fixed using 4% (w/v) paraformaldehyde for 20 minutes and permeablised using 0.5% (v/v) Triton-X-100 for 30 minutes. […] These were detected using the appropriate secondary antibodies diluted in 1% (w/v) BSA in PBS: anti-rabbit AlexaFluor 546 (Invitrogen, 1:1000) and anti-mouse AlexaFluor 546 (Invitrogen, 1:1000). […] Mean nuclear fluorescence for at least 50 nuclei was measured using Image) software (National Institutes of Health, USA) and the data analysed using GraphPad Prism software version 6.0.
# ATR [8] = biological target: T2, ATR (Mus musculus, UniProt Q9JKK8); assay: ATR inhibition in whole mouse blood ex vivo: 4-nitroquinoline stimulated H2AX phosphorylation in lymphocytes, flow cytometry
# T2 construct: Whole human or mouse blood was collected in heparinised tubes; endogenous in cells; host or cells: lymphocytes in whole mouse blood ex vivo
# Experimental: The samples were mixed by agitation, incubated for 10 min at 37° C. and stimulated with 62 uM (human) or 124 uM (mouse) 4-nitroquinoline for 1 h at 37° C. The samples were then fixed and red blood cells were lysed using Lyse/Fix Buffer (BD) for 5-10 min and white blood cells were collected by centrifugation according to the manufacturer's instructions. The samples were then transferred into 96 well round bottom plates and permeabilised using Triton X-100 according to method i). H2AX phosphorylation was then analysed by flow cytometry according to method i) with selection of lymphocytes using either standard scatterplot gating or CD3 staining. For specific analysis of H2AX phosphorylation in CD3 positive lymphocytes, cells were stained with 1:2.5 diluted PE-conjugated anti-human CD3 (BD) (human) and 1:50 diluted APC-conjugated anti-mouse CD3 (BD) (mouse) in place of propidium iodide and analyses of P-H2AX were performed on the CD3-positive population.
# [9] = test system: ATR-dependent phosphorylation events; assay: 4-nitroquinoline induction of ATR-dependent phosphorylation events in cell lines and isolated PBMCs
# Experimental: PBMCs were purified from fresh whole human blood using FICOLL-PAQUE™ density gradient centrifugation. Cells were counted and seeded at 5×10(5) per well in a round bottom 96 well plate in RPMI medium supplemented with 10% foetal calf serum (FCS) and penicillin/streptomycin/glutamine (PSQ). […] Washed cells were then fixed with 4% paraformaldehyde for 10 min, permeabilised with 0.5% Triton X-100 for 10 min and analysed for Histone H2AX S139 phosphorylation by flow cytometry on the using 1:200 diluted anti-γH2AX primary antibody clone JBW301 (Millipore), 1:500 goat anti-mouse Alexa Fluor488 (Invitrogen) and propidium iodide DNA staining.
# Blood from healthy volunteers was collected by venepuncture into EDTA-coated blood collection tubes. […] PBMCs were collected using centrifugation, washed in 1 ml PBS then resuspended in 1 ml PBS before being counted using a haemocytometer. […] These were detected using the appropriate secondary antibodies diluted in 1% (w/v) BSA in PBS for 1 hour at room temperature protected from the light: anti-rabbit AlexaFluor 488 (Invitrogen, 1:1000) and anti-mouse AlexaFluor 546 (Invitrogen, 1:1000). […] Mean nuclear fluorescence for at least 50 nuclei was measured using ImageJ software (National Institutes of Health, USA) and the data analysed using GraphPad Prism software version 6.0. […]
# [10] = test system: pChk1^Ser345 and γH2AX in MCF7 cells; assay: Evaluation of optimal 4-nitroquinoline concentration in MCF7 cells, immunofluorescence; conditions: 0.1-10 μM 4-nitroquinoline, 2 hours
# Experimental: Coverslips were sterilised in methanol and placed in the bottom of a 6-well culture dish. 2×10^5 MCF7 cells were seeded into each well of a 6-well culture dish in culture medium (RPMI-1640 with 10% FBS and 1% penicillin and streptomycin) and allowed to adhere for 24 hours. Medium was replaced by fresh medium containing 4-nitroquinoline (0.1-10 μM) and incubated at 37° C. for 2 hours. Cells were washed in PBS, fixed using 4% (w/v) paraformaldehyde for 20 minutes at room temperature and permeablised using 0.5% (v/v) Triton-X-100 for 30 minutes at room temperature. Permeablised cells were blocked using 10% (v/v) goat serum and 5% (w/v) BSA in PBS for 1 hour, the coverslips removed and subjected to immunofluorescent analysis using primary antibodies diluted in 1% (w/v) BSA in PBS overnight at 4° C.: rabbit anti-pChk1^Ser345 (133D3, Cell Signaling Technology, 1:300) and mouse anti-phospho-Histone H2AX^Ser139 (JBW301, Millipore, 1:1000). These were detected using the appropriate secondary antibodies diluted in 1% (w/v) BSA in PBS for 1 hour at room temperature protected from light: anti-rabbit AlexaFluor 546 (Invitrogen, 1:1000) and anti-mouse AlexaFluor 546 (Invitrogen, 1:1000). […] Mean nuclear fluorescence for at least 50 nuclei was measured using Image) software (National Institutes of Health, USA) and the data analysed using GraphPad Prism software version 6.0.
# [11] = test system: pChk1^Ser345 and γH2AX in PBMCs; assay: Evaluation of optimal 4-nitroquinoline concentration in PBMCs from treated human whole blood, immunofluorescence; conditions: 240 μM 4-nitroquinoline, 2 hours
# Experimental: Blood from healthy volunteers was collected by venepuncture into EDTA-coated blood collection tubes. 2 mls of blood per treatment was transferred into 1 well of a 6-well plates already containing 2 mls PBS containing 2% (v/v) FBS and DMSO or 4-nitroquinoline (60, 120, 240, 480 μM final concentration). Following 2 hours incubation at 37° C. the blood mixture was transferred into 15 ml falcon tubes containing 2 mls FICOLL-PAQUE PLUS™ and the PBMCs separated using centrifugation through a FICOLL-PAQUE PLUS™ separation gradient. PBMCs were collected and washed twice using 10 mls PBS and resuspended in 1 ml PBS. PBMCs were counted using a haemocytometer and 1×10^5 PBMCs were centrifuged onto microscope slides using a CYTOSPIN 2™ centrifuge (Shandon) for 5 minutes at 450 rpm. Cells were fixed using 4% (w/v) paraformaldehyde for 20 minutes and permeablised using 0.5% (v/v) Triton-X-100 for 30 minutes. […] These were detected using the appropriate secondary antibodies diluted in 1% (w/v) BSA in PBS: anti-rabbit AlexaFluor 546 (Invitrogen, 1:1000) and anti-mouse AlexaFluor 546 (Invitrogen, 1:1000). […] Mean nuclear fluorescence for at least 50 nuclei was measured using Image) software (National Institutes of Health, USA) and the data analysed using GraphPad Prism software version 6.0.
compound,measurement,setting,value
CS(=O)(=O)c1ccc(-c2cnc(N)c(C(=O)Nc3ccccc3)n2)cc1 [VE-821],inhibition (of UV-induced Chk1 phosphorylation),[1]; at 0.5 hr,70%
same,inhibition (of UV-induced Chk1 phosphorylation),[1]; at 3 hr,55%
same,inhibition at 10 µM,[2],> 70%
same,inhibition at 10 µM,"γH2AX in MCF7 cells [3]; 10 μM VE-821, at 1 hr",70%
same,inhibition at 10 µM,"γH2AX in MCF7 cells [3]; 10 μM VE-821, at 3 hr",40%
same,inhibition of UV-induced pChk1^Ser345,ATR [4],significant inhibition
same,inhibition of UV-induced γH2AX,ATR [4],significant inhibition
same,inhibition of γH2AX,γH2AX in MCF7 cells [5]; at 0.5 hr,80%
same,inhibition of γH2AX,γH2AX in MCF7 cells [5]; at 3 hr,< 20%
same,level of pChk1^Ser345 signal after co-administering compound,ATR [6],reduction
same,level of γH2AX signal after co-administering compound,ATR [6],reduction
CNCc1ccc(-c2cc(-c3nc(-c4ccc(S(=O)(=O)C(C)C)cc4)cnc3N)on2)cc1 [VE-822],inhibition of 4-nitroquinoline-induced increases in γH2AX,ATR [7],inhibited by VE-822 in a concentration-dependent manner
same,IC50,ATR [8],1000 nM
O=[N+]([O-])c1ccnc2ccccc12 [4-nitroquinoline],concentration adequate to induce ATR-dependent phosphorylation events,[9],≤ 5 µM
same,concentration required for pChk1^Ser345 and γH2AX induction compared with whole blood,[10],lower concentrations were required
same,phosphorylation of pChk1^Ser345 and γH2AX (biomarker induction),[11],improved phosphorylation
